Data set [1] is described as follows: Toxicity in Syrian hamster infected with Leishmania infantum BCN150 promastigotes assessed as effect on plasma creatinine level at 40 mg/kg/day, po for 10 days formulated with 8% v/v DMSO. The settings on record: in vivo, 240 h. It counts as organism-based, Mesocricetus auratus.
Data set [2] deals with CYP2D6 (Homo sapiens, UniProt P10635). Nature of the data set: Inhibition of human microsomal CYP2D6 expressed in baculovirus infected insect cells at 10 uM using luciferin-ME as substrate preincubated with enzyme/substrate mixture for 30 mins followed by further incubation with NADPH for 30 mins by CYP450 luciferase Glo assay relative to control. The format is ADME. The settings on record: probe luciferin-ME.

In data set [3] the test system is Trypanosoma brucei. As to the kind of experiment: Antitrypanosomal activity against Trypanosoma brucei bloodstream form assessed as parasite growth inhibition incubated for 72 hrs by resazurin dye based assay. The format is functional, organism-based. The settings on record: Trypanosoma brucei, 72 h; read-out: EC50.
Data set [4] in a line: Toxicity in Syrian hamster infected with Leishmania infantum BCN150 promastigotes assessed as effect on AST level at 40 mg/kg/day, po for 10 days formulated with 8% v/v DMSO measured after the last treatment. The format is organism-based, Mesocricetus auratus. The settings on record: in vivo, 240 h.
The test system of data set [5] is Trypanosoma cruzi. Nature of the data set: Antitrypanosomal activity against intracellular amastigote stage of Trypanosoma cruzi CL Brener infected in human U2OS cells measured after 96 hrs by DRAQ5 dye based microscopic analysis. It counts as functional, organism-based.
For data set [6], the target named is CYP2C9 (Homo sapiens, UniProt P11712). Nature of the data set: Inhibition of human microsomal CYP2C9 expressed in baculovirus infected insect cells at 10 uM using luciferin-H as substrate preincubated with enzyme/substrate mixture for 30 mins followed by further incubation with NADPH for 30 mins by CYP450 luciferase Glo assay relative to control. The settings on record: probe luciferin-H. The format is ADME.

Data set [7] concerns Leishmania major. As to the kind of experiment: Antileishmanial activity against promastigote form of Leishmania major assessed as parasite growth inhibition. The format is functional, organism-based.
The subject of data set [8] is Leishmania infantum. As to the kind of experiment: Antileishmanial activity against luciferase expressing intracellular amastigote stage of Leishmania infantum infected in human THP1 cells assessed as parasite growth inhibition measured after 48 to 72 hrs by steady-glo luciferase assay. It counts as functional, organism-based. The settings on record: Leishmania infantum, THP-1; read-out: EC50.

Data set [9] can be described thus: Stability of the compound in phosphate buffer assessed as compound lifetime at 450 nm at 5 uM measured at pH 8 by fluorescence emission spectrum analysis. It counts as physicochemical. Conditions: pH 8, 0.45 µM.
The test system of data set [10] is Trypanosoma cruzi. Nature of the data set: Antitrypanosomal activity against intracellular amastigote stage of Trypanosoma cruzi Silvio X10/1 infected in human U2OS cells measured after 96 hrs by DRAQ5 dye based microscopic analysis. The format is functional, organism-based.
Data set [11] concerns the target CYP3A4 (Homo sapiens, UniProt P08684). As to the kind of experiment: Inhibition of human microsomal CYP3A4 expressed in baculovirus infected insect cells at 10 uM using luciferin-IPA as substrate preincubated with enzyme/substrate mixture for 30 mins followed by further incubation with NADPH for 30 mins by CYP450 luciferase Glo assay relative to control. It counts as ADME. The settings on record: probe luciferin-IPA.

In data set [12] the test system is Trypanosoma cruzi. Nature of the data set: Antitrypanosomal activity against intracellular amastigote stage of Trypanosoma cruzi 92.80 cl2 infected in human U2OS cells measured after 96 hrs by DRAQ5 dye based microscopic analysis. The format is functional, organism-based.
Data set [13] relates to Trypanosoma cruzi. As to the kind of experiment: Antitrypanosomal activity against Trypanosoma cruzi strain Y trypomastigotes infected in human HG39 cells by TaqMan probe based RT-PCR analysis. The format is functional, organism-based. (In general: Real-time PCR tracks product formation cycle by cycle.)
Data set [14] concerns 786-0. Nature of the data set: Mitochondrial toxicity in human 786-0 cells at 10 uM incubated with compound for 6 hrs followed by incubation with MitoTracker Red chloromethyl-X-rosamine dye for 45 mins by imaging analysis. The format is cell-based. Conditions: 786-0, 6 h.
The subject of data set [15] is Leishmania donovani. Nature of the data set: Antileishmanial activity against promastigote form of Leishmania donovani assessed as parasite growth inhibition. The format is functional, organism-based.
Data set [16] deals with T1, CYP1A2 (Homo sapiens, UniProt P05177).
T1 sequence (P05177 whole entry): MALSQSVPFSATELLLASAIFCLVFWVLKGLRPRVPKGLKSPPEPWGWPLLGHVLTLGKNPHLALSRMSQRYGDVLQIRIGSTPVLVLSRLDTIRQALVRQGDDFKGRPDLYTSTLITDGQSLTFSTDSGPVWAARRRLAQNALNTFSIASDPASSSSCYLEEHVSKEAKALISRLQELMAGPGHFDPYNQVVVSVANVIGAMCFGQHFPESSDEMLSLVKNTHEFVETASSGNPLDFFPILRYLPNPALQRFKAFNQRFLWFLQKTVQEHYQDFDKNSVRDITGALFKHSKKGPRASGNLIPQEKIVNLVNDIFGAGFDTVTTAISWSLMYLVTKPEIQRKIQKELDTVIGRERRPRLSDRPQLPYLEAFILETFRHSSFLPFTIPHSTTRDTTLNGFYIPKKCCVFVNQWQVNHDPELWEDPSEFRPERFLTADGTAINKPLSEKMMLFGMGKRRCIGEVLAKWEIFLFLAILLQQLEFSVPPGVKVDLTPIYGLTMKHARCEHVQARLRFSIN
Nature of the data set: Inhibition of human microsomal CYP1A2 expressed in baculovirus infected insect cells at 10 uM using luciferin-1A2 as substrate preincubated with enzyme/substrate mixture for 30 mins followed by further incubation with NADPH for 30 mins by CYP450 luciferase Glo assay relative to control. The format is ADME. Conditions: probe luciferin-1A2.

Data set [17] addresses CYP2C19 (Homo sapiens, UniProt P33261). As to the kind of experiment: Inhibition of human microsomal CYP2C19 expressed in baculovirus infected insect cells at 10 uM using luciferin-H EGE as substrate preincubated with enzyme/substrate mixture for 30 mins followed by further incubation with NADPH for 30 mins by CYP450 luciferase Glo assay relative to control. It counts as ADME. Conditions: probe luciferin-H EGE.

Data set [18] can be described thus: Thermodynamic solubility of the compound in water at >50 uM. The format is physicochemical. The settings on record: buffer.
The subject of data set [19] is Trypanosoma cruzi. Nature of the data set: Antitrypanosomal activity against intracellular amastigote stage of Trypanosoma cruzi Y infected in human U2OS cells measured after 96 hrs by DRAQ5 dye based microscopic analysis. The format is functional, organism-based.
For data set [20], the target named is hERG (KCNH2) (Homo sapiens, UniProt Q12809). Nature of the data set: Inhibition of human ERG at 10 uM incubated for 2 hrs by fluorescence polarization assay relative to control. A general note: Polarisation of emitted light reports the rotation of a fluorescent probe.
The test system of data set [21] is Trypanosoma cruzi. As to the kind of experiment: Antitrypanosomal activity against intracellular amastigote stage of Trypanosoma cruzi ARMA 13 cl1 infected in human U2OS cells measured after 96 hrs by DRAQ5 dye based microscopic analysis. It counts as functional, organism-based.
The nature of data set [22]: Cytotoxicity against human A549 cells assessed as cell growth at […] incubated for 48 hrs by Celltiter-Glo luminescence assay relative to control. Also noted: dose or concentration left out as unconfirmed. The settings on record: read-out: Activity. The format is cell-based. For orientation: In ATP-based viability assays light output follows the ATP content of the culture.

In data set [23] the test system is Leishmania donovani. As to the kind of experiment: Antileishmanial activity against Leishmania donovani BPK091 promastigotes transfected with Leishmania donovani BPK190 genomic cosmid DNA assessed as parasite growth at IC50 concentration incubated with compound for 3 days under selective pressure and selection cycle repeated 10 times and measured at 37 days of selection relative to control. It counts as functional.

Data set [24] is described as follows: Toxicity in Syrian hamster infected with Leishmania infantum BCN150 promastigotes assessed as effect on AST level at 20 mg/kg/day, po for 10 days measured after the last treatment. It counts as organism-based, Mesocricetus auratus. Conditions: in vivo, 240 h.
Data set [25] can be described thus: Toxicity in Syrian hamster infected with Leishmania infantum BCN150 promastigotes assessed as itching effect at 20 mg/kg/day, po for 10 days measured daily. It counts as organism-based, Mesocricetus auratus. Conditions: in vivo, 240 h.
A short description of data set [26]: Toxicity in Syrian hamster infected with Leishmania infantum BCN150 promastigotes assessed as spleen weight at 20 mg/kg/day, po for 10 days (reference value: 0.182 +/- 0.036 g). It counts as organism-based, Mesocricetus auratus. The settings on record: in vivo, 240 h.

This is an account of results in ChEMBL document CHEMBL4311972, “Discovery of a benzothiophene-flavonol halting miltefosine and antimonial drug resistance in Leishmania parasites through the application of medicinal chemistry, screening and genomics” (Eur J Med Chem, 2019).

Calls of active or inactive are those of the source. The calls are words filed in the database; no cut-off is given here.

Sequence of CYP2C19 (P33261 whole entry): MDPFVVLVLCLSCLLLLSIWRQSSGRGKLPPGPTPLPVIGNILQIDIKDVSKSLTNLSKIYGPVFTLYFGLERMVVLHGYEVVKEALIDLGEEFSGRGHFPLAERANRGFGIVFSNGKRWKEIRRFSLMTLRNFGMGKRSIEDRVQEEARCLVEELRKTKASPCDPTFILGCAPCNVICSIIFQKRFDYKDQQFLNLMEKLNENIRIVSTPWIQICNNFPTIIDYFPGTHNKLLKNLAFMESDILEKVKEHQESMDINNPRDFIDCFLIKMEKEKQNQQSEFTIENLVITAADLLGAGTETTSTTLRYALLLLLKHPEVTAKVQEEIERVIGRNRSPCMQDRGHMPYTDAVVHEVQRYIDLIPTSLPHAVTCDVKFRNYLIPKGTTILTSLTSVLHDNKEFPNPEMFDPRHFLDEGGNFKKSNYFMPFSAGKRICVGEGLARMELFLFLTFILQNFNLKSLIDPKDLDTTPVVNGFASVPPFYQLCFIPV
Sequence of CYP3A4 (P08684 whole entry): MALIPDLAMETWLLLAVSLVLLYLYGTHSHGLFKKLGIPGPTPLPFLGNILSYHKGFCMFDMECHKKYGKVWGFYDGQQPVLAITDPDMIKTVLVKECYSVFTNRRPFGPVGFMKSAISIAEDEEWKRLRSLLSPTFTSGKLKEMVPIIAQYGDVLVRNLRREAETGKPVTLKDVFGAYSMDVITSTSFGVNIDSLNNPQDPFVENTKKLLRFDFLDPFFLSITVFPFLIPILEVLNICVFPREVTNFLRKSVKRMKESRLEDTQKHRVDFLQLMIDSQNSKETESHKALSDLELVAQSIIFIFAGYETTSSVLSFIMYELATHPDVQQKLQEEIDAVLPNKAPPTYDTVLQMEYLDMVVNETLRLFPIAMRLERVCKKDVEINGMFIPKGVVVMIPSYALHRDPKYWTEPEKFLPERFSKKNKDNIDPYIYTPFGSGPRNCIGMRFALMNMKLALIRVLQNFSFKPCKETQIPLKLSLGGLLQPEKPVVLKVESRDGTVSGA
Sequence of CYP2D6 (P10635 whole entry): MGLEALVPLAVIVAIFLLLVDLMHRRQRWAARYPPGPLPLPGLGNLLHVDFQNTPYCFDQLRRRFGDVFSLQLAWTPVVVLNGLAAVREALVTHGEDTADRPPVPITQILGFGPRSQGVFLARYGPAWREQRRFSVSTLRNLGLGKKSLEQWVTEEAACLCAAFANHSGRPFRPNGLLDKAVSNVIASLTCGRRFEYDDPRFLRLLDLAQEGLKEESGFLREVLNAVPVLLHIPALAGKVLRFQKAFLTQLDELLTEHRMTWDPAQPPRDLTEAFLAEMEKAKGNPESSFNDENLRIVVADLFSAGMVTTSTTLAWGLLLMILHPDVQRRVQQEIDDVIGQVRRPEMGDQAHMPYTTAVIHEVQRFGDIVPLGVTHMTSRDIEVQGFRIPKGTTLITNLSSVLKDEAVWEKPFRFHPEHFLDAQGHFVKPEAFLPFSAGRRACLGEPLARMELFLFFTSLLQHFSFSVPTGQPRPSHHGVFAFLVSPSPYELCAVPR
Sequence of hERG (KCNH2) (Q12809 whole entry): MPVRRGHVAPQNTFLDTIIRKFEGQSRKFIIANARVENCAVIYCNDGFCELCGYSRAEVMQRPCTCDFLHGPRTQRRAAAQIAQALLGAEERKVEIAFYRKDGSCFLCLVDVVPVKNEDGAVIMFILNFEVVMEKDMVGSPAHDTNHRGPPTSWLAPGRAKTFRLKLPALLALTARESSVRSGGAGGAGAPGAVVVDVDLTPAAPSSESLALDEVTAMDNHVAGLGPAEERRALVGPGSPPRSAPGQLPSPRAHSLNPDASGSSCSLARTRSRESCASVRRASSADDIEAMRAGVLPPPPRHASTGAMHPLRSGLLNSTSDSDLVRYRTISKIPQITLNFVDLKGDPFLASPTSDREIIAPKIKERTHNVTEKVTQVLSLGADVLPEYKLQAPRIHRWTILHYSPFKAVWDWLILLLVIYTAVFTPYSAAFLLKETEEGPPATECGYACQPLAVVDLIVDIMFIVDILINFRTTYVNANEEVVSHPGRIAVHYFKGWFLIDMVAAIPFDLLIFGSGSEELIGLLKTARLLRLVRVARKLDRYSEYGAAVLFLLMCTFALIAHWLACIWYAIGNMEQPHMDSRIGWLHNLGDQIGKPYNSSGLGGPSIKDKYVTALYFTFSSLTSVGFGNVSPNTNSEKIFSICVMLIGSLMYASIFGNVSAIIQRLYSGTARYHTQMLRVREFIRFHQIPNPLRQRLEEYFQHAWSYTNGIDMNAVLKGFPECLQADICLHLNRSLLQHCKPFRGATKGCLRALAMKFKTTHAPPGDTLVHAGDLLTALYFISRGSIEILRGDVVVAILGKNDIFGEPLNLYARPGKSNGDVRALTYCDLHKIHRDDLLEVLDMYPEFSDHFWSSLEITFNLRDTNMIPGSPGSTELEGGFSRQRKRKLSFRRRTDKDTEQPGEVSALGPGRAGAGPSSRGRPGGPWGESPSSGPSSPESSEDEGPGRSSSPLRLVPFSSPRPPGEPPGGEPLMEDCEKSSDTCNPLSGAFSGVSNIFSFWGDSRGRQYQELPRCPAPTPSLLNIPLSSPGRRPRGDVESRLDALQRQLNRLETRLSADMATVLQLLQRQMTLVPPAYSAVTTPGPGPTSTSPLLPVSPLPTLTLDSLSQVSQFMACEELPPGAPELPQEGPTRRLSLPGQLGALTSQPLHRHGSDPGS
Sequence of CYP2C9 (P11712 whole entry): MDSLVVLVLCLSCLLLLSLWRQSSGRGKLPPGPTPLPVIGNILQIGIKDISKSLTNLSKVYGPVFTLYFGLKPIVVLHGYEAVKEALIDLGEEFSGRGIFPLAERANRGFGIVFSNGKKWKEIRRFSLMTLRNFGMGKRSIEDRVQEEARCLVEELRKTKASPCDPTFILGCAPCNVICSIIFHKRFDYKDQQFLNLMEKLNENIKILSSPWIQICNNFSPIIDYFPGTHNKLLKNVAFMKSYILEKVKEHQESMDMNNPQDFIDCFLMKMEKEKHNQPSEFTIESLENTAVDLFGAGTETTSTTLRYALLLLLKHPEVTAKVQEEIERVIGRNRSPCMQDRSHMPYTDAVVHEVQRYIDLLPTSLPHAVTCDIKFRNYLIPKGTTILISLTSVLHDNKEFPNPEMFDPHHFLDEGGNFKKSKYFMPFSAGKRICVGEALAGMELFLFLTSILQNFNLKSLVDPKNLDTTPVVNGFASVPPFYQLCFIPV

For orientation: inhibition means the change of the read-out against control, counted positive when it falls. As a reminder, the EC50 is the concentration giving half of the maximal effect. Consider `COc1ccc2oc(-c3csc4ccccc34)c(O)c(=O)c2c1`, for which the Activity result in [1] is reported as “Non-Toxic”; in [4] it was “Non-Toxic”; in [14], -22.85%; in data set [23], above 50%. The inhibition at 0.5 h, 10 µM in data set [2] was 26.2%; in data set [6], -10%; in [11], 23.3%; in data set [16], 99.7%; in [17], -6.32%. Further, the EC50 in [3] turned out to be 800 nM; in [5], 600 nM; in data set [7], 6700 nM; in data set [8] it was 1880 nM; in data set [10] (Silvio X10/1, U2OS), 300 nM; in data set [12] (92.80 cl2, U2OS), 700 nM. In addition, the EC50 was found to be 7500 nM in data set [13]; 3400 nM in [15]; 900 nM in data set [19]; 1200 nM in data set [21] (ARMA 13 cl1, U2OS). In [9], the Time is on record as 0.32 nanoseconds. The Therm_solubility result in data set [18] was “Insoluble”. In addition, in [20], the inhibition at 2 h, 10 µM is 32%. Moreover, the viability at 48 h in data set [22] amounted to 3.19%.

`CCCCCCCCCCCCCCCCOP(=O)([O-])OCC[N+](C)(C)C` [MILTEFOSINE]: the inhibition at 0.5 h, 10 µM in data set [2] was 30.8%; in [11], 8.4%; in [16], -20%; in data set [17], 7.9%. In addition, the EC50 was 34000 nM in [3], 2510 to 3200 nM in data set [8], 12500 nM in [13] and 9000 nM in [15]. Besides, the inhibition result in [5], in [7], in [10], in data set [12], in data set [19] and in data set [21] was “Active” each time. In addition, the Activity entry is recorded as “Non-Toxic” in [24]; 3.4% in data set [14]; “Toxic” in data set [25]; 0.191 g in [26]; above 50% in data set [23]. The Therm_solubility result in data set [18] was “Insoluble”. In addition, in data set [20], the inhibition at 2 h, 10 µM was -16.9%. The viability at 48 h in [22] amounted to 95.8%.
